This passage reports Ki, Kb and Selectivity results from ChEMBL document CHEMBL1131394, “Design and synthesis of N-alkylated saccharins as selective alpha-1a adrenergic receptor antagonists” (Bioorg Med Chem Lett, 1998).

The target of test [1] is T1, Alpha-1D adrenergic receptor (Homo sapiens, UniProt P25100).
T1 sequence (P25100 whole entry): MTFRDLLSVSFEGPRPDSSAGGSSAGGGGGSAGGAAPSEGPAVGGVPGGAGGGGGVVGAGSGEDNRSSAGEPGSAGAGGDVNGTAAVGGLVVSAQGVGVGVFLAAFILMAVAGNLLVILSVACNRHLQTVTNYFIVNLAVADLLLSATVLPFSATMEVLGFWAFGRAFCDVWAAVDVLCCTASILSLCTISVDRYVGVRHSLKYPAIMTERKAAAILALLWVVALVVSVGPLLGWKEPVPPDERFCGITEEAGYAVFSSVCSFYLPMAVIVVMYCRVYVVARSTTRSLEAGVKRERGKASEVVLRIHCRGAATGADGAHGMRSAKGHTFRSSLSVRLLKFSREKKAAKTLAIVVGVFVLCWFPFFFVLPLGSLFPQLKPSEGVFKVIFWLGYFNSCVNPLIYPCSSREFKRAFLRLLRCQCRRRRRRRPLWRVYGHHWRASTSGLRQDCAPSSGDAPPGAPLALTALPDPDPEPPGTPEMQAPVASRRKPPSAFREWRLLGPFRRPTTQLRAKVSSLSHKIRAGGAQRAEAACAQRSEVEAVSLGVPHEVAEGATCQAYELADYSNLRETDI
The test is described as follows: Ability to displace beta ([125I]-iodo-4-hydroxyphenyl) ethylamino methyl tetralone from human cloned Alpha-1d adrenergic receptor stably expressed in HEK cells. The class given is cell-based, HEK293.

Test [2] deals with Canis familiaris. The test can be described thus: In vivo inhibitory activity against […]-induced increase in diastolic blood pressure (DBP) in dog. The class given is functional, Canis lupus familiaris, Artery.
Test [3] concerns Canis familiaris. The test is described as follows: In vivo inhibitory activity against […]-induced increase in urethral pressure (IUP) in dog. The class given is functional, Canis lupus familiaris, Urethra.
Test [4] concerns the target T2, Alpha-1A adrenergic receptor (Homo sapiens, UniProt P35348).
T2 sequence (P35348 whole entry): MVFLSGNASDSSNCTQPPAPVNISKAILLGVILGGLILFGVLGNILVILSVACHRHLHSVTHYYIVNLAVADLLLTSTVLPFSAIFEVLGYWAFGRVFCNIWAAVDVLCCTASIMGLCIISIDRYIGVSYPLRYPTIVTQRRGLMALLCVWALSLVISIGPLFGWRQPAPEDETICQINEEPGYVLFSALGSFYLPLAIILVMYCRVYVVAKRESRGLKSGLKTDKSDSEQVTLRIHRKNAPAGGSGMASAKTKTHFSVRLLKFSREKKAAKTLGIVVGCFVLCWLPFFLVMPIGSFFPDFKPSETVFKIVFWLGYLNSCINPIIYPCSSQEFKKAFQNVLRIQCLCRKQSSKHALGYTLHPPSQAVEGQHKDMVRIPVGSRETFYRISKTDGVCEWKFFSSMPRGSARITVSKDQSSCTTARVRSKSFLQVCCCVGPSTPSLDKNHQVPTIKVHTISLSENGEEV
The test can be described thus: Ability to displace beta ([125I]-iodo-4-hydroxyphenyl)-ethylaminomethyl tetralone from human cloned Alpha-1a adrenergic receptor stably expressed in CHO cells. Type of test: cell-based.

Test [5] addresses T3, Alpha-1B adrenergic receptor (Homo sapiens, UniProt P35368).
T3 sequence (P35368 whole entry): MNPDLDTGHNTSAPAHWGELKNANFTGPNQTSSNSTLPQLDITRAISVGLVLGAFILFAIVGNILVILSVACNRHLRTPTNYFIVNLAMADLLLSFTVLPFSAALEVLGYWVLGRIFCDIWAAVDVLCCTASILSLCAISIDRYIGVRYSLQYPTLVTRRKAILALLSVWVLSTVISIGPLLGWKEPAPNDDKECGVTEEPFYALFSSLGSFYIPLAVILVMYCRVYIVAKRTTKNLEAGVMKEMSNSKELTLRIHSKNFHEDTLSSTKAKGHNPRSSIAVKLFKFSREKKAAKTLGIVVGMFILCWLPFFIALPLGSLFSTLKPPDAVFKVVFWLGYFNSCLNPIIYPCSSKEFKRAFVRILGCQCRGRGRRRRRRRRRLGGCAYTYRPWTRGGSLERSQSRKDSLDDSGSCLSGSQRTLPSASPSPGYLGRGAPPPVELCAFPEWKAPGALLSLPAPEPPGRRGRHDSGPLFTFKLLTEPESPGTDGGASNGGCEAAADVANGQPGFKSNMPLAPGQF
The test is described as follows: Ability to displace beta ([125I]-iodo-4-hydroxyphenyl)-ethylamino methyl tetralone from human cloned Alpha-1b adrenergic receptor stably expressed in LM cells. Type of test: cell-based.

Test [6] deals with T2, Alpha-1A adrenergic receptor. The test is described as follows: Ability to displace beta ([125I]-iodo-4-hydroxyphenyl)-ethylaminomethyl tetralone from human cloned Alpha-1a adrenergic receptor stably expressed in COS-7 cells. Type of test: cell-based.
In test [7] the target is T3, Alpha-1B adrenergic receptor. The test can be described thus: Ability to displace beta ([125I]-iodo-4-hydroxyphenyl)-ethylamino methyl tetralone from human cloned Alpha-1b adrenergic receptor stably expressed in COS-7 cells. The class given is cell-based.
In test [8] the target is T1, Alpha-1D adrenergic receptor. The test can be described thus: Ability to displace beta ([125I]-iodo-4-hydroxyphenyl)-ethylamino methyl tetralone from human cloned Alpha-1d adrenergic receptor stably expressed in COS-7 cells. The class given is cell-based.
In test [9] the target is T4, Adrenergic receptors; alpha-1 A & B (Homo sapiens) (UniProt P35348+P35368). The test is described as follows: Selectivity towards Alpha-1A over alpha-1b receptor; 3.3x. The class given is protein assay.
Test [10] addresses T5, Alpha adrenergic receptor (1a and 1d) (Homo sapiens) (UniProt P35348+P25100). The test is described as follows: Selectivity towards alpha-1a over alpha1d receptor; 5.5x. The class given is protein assay.
Test [11] concerns the target T2, Alpha-1A adrenergic receptor. The test can be described thus: Ability to displace beta ([125I]-iodo-4-hydroxyphenyl)-ethylamino methyl tetralone from human cloned Alpha-1a adrenergic receptor stably expressed in Chinese Hamster Ovary (CHO) cells. The class given is cell-based.
Test [12] has the same target. The test can be described thus: Ability to displace beta ([125I]-iodo-4-hydroxyphenyl)-ethylaminomethyl tetralone from human cloned Alpha-1a adrenergic receptor stably expressed in Chinese Hamster Ovary (CHO) cells. Type of test: cell-based.
Test [13] has as its target T4, Adrenergic receptors; alpha-1 A & B (Homo sapiens). The test can be described thus: Selectivity towards alpha-1a over alpha-1b receptor; 97x. Type of test: protein assay.
The target of test [14] is T5, Alpha adrenergic receptor (1a and 1d) (Homo sapiens). The test is described as follows: Selectivity towards Alpha-1A over alpha1d receptor; 208x. Type of test: protein assay.
In test [15] the target is T4, Adrenergic receptors; alpha-1 A & B (Homo sapiens). The test is described as follows: Selectivity towards Alpha-1A over alpha-1b receptor; 11x. Type of test: protein assay.
In test [16] the target is T5, Alpha adrenergic receptor (1a and 1d) (Homo sapiens). The test is described as follows: Selectivity towards Alpha-1A over alpha-1d receptor; 56x. Type of test: protein assay.
Test [17] has the same target. The test is described as follows: Selectivity towards Alpha-1A over alpha1d receptor; 11x. Type of test: protein assay.
Test [18] has as its target T4, Adrenergic receptors; alpha-1 A & B (Homo sapiens). The test is described as follows: Selectivity towards Alpha-1A over alpha-1b receptor; 5x. The class given is protein assay.
Test [19] shares this target. The test can be described thus: Selectivity towards Alpha-1A over alpha-1b receptor; 188x. The class given is protein assay.
Test [20] has as its target T5, Alpha adrenergic receptor (1a and 1d) (Homo sapiens). The test is described as follows: Selectivity towards Alpha-1A over alpha-1d receptor; 266x. Type of test: protein assay.
For test [21], the target named is T2, Alpha-1A adrenergic receptor. The test can be described thus: Ability to displace beta ([125I]-iodo-4-hydroxyphenyl)-ethylaminomethyl tetralone from human cloned Alpha-1a adrenergic receptor stably expressed in CHO cells.

As for `O=C1c2cc(Cl)ccc2S(=O)(=O)N1CCCCN1CCC(n2c(=O)oc3ccccc32)CC1`, in test [1], the Ki was 85 nM. Also, the values for the Kb in [2] and in test [3] were 156 µg/kg and 5.5 µg/kg, respectively.
Turning to `CSc1ccc2c(c1)C(=O)N(CCCCN1CCC(n3c(=O)oc4ccccc43)CC1)S2(=O)=O`, the inhibition constant (Ki) in [1] worked out at 59 nM; in test [4], 0.057 nM; in [5], 10 nM.
With `COc1cc2nc(N3CCN(C(=O)C4CCCO4)CC3)nc(N)c2cc1OC` (stereo unspecified) [TERAZOSIN], the Kb in [2] was found to be 17 µg/kg; in test [3], 16 µg/kg.
In the case of `CS(=O)(=O)c1ccc2c(c1)S(=O)(=O)N(CCCCN1CCC(n3c(=O)oc4ccccc43)CC1)C2=O`, the Ki in [6] was determined as 2.4 nM; in test [7] it was 6.8 nM; in test [8], 210 nM.
On to `COc1ccc2c(c1)oc(=O)n2C1CCN(CCCCN2C(=O)c3ccccc3S2(=O)=O)CC1`, for which the values for the Selectivity in test [9] and in [10] were 3.3 and 5.5, respectively. In addition, the Ki in test [1] amounted to 2750 nM; in test [11] it was 499 nM; in [5], 1650 nM.
Turning to `Cc1cccc2oc(=O)n(C3CCN(CCCCN4C(=O)c5ccccc5S4(=O)=O)CC3)c12`, the inhibition constant Ki stood at 1020 nM in test [1], 147 nM in test [11] and 1150 nM in [5].
`Cc1ccc2c(c1)C(=O)N(CCCCN1CCC(n3c(=O)oc4ccccc43)CC1)S2(=O)=O`: the Ki is 73 nM in test [1], 20 nM in test [5] and 0.099 nM in test [12].
Turning to `O=C1c2cc([N+](=O)[O-])ccc2S(=O)(=O)N1CCCCN1CCC(n2c(=O)oc3ccccc32)CC1`, the values for the Ki in test [1], in test [11] and in test [5] were 351 nM, 0.13 nM and 133 nM, respectively.
With `O=C1c2ccccc2S(=O)(=O)N1CCCCN1CCC(n2c(=O)oc3ccccc32)CC1`, the Ki in [1] is 41 nM; in [11], 0.12 nM; in [5], 14 nM.
For `O=C1c2ccccc2C(=O)N1CCCCN1CCC(n2c(=O)[nH]c3ccccc32)CC1`, in that order: 16 nM, 0.28 nM and 3 nM.
`Cc1ccc2c(c1)oc(=O)n2C1CCN(CCCCN2C(=O)c3ccccc3S2(=O)=O)CC1`: the Ki in test [1] was 644 nM; in test [11] it was 3.1 nM; in [5], 301 nM. The Selectivity in [13] amounted to 97; in test [14], 208.
Take `COc1ccc2c(c1)C(=O)N(CCCCN1CCC(n3c(=O)oc4ccccc43)CC1)S2(=O)=O`: the figures for the Ki in test [1], in test [5] and in test [12] were 76 nM, 15 nM and 0.064 nM, respectively.
`O=C1c2ccccc2C(=O)N1CCCCN1CCC(n2c(O)nc3ccccc32)CC1`: the results for the Selectivity in [15] and in test [16] were 11 and 56, respectively.
In the case of `Cc1cc(C)c2oc(=O)n(C3CCN(CCCCN4C(=O)c5ccccc5S4(=O)=O)CC3)c2c1`, the Ki was determined as 224 nM in test [1], 20 nM in test [11] and 108 nM in [5]. Further, the Selectivity in [17] amounted to 11; in test [18], 5.
For the compound `Cc1ccc2oc(=O)n(C3CCN(CCCCN4C(=O)c5ccccc5S4(=O)=O)CC3)c2c1`, the inhibition constant (Ki) stood at 136 nM in test [1], 1.2 nM in test [11] and 37 nM in [5].
As for `O=C1c2ccccc2S(=O)(=O)N1CCCCN1CCC(n2c(=O)oc3cc4c(cc32)CCCC4)CC1`, the Ki came to 894 nM in [1], 90 nM in [11] and 676 nM in test [5].
For `O=C1c2ccccc2S(=O)(=O)N1CCCCN1CCC(n2c(=O)oc3cc(F)ccc32)CC1`, in that order: 25 nM, 0.084 nM and 7.3 nM.
Turning to `O=C1c2ccc([N+](=O)[O-])cc2S(=O)(=O)N1CCCCN1CCC(n2c(=O)oc3ccccc32)CC1`, the Ki in test [1] came to 75 nM; in [4], 0.16 nM; in test [5], 75 nM.
Turning to `O=C1c2cc(F)ccc2S(=O)(=O)N1CCCCN1CCC(n2c(=O)oc3ccccc32)CC1`, the values for the Selectivity in [19] and in test [20] were 188 and 266, respectively. The Ki in test [1] worked out at 71 nM; in [21], 0.27 nM; in test [5], 50 nM.
Take `COC(=O)c1ccc2c(c1)oc(=O)n2C1CCN(CCCCN2C(=O)c3ccccc3S2(=O)=O)CC1`: the Ki in test [1] amounted to 3430 nM; in test [11], 1030 nM; in test [5] it was 1960 nM.

The term Ki denotes the dissociation constant of the complex between target and ligand, obtained from inhibition or displacement. Read a high Ki as a looser hold on the target.
